Molecules are shown by their SMILES. Read-outs that look alike come from different tables or passages of the source. Where only a bound is given, the exact number is not on record here.

One series concerns rats and monkeys. As to conditions: cited from earlier work.
The target of series [1] is T1, norepinephrine transporter (Homo sapiens, UniProt P23975). The series can be described thus: NE uptake: displacement of norephinephrine ligands in vitro (methods of Galli et al.). Type of series: binding.
Series [2] addresses T2, serotonin transporter (Homo sapiens, UniProt P31645). Nature of the series: 5-HT uptake: displacement of serotonin ligands in vitro (methods of Gu et al.). Type of series: binding.
The target of series [3] is T1, norepinephrine transporter. The series can be described thus: Functional activity, norephinephrine uptake inhibition in MDCK cell lines. In kind it is cell-based.
In the next series the test system is Sprague-Dawley rats. Nature of the series: Spontaneous locomotor activity in rats (Example 123). Type of series: in vivo, rat. Conditions: 20 mg/kg i.p., 60 minutes after administration. As to the method:
Male Sprague-Dawley rats, (Iffa Credo, Saint-Germain/L'Arbresle, France), weighing 200-250 g at the beginning of the study, were used.
During acclimatization period, rats were housed, 2 or 3 per cage, in Makrolon type III cages, in the animal room (temperature: 20±2° C., humidity: minimum 45%, air changes:>12 per hour, light/dark cycle of 12 h/12 h [on at 7:00 A.M.]). Animals were allowed a minimum of 5 days period before experiment for acclimatization.
Rats received food (TrouwNutrition, Vigny, France) and water (tap water in water bottle) ad libitum. Rats were placed on a sawdust bedding in their cages (Goldchips, Trouw Nutrition, Vigny, France). On the day before experiments, food was withdrawn to have animals fasted overnight.
On the day of experiment, test item(s) were solubilized in 5% dextrose (w/v)/polyethylene glycol (PEG) 400 (4:1 v/v).
All test compounds were administered at 20 mg/kg as a single i.p. dose.
Twenty, 60 and 120 minutes after administration, rats were placed in a plastic box 30×30 cm in a room with low light intensity (maximum 50 lux). Locomotor activity was determined during 20 min periods using a video image analyzer (Videotrack, View Point, France). Number of occurences, distance and duration of fast and slow movements, number of occurences and duration of periods of inactivity and number of rears were measured.

The subject of another series is mouse. The series can be described thus: Acute toxicity assessment, maximum tolerated dose i.v., mouse. In kind it is in vivo. Conditions: mice, 30 mg/kg i.v. As to the method:
(§1) An in vivo evaluation was carried out to determine the maximum tolerated dose of numerous test compounds in two animal species (mouse and rat). The compounds were administered i.v. and the animals were then observed for 72 h. Compounds 114, 115, 113, 110, 124, 125, 129, and 130 were solubilized in 5% dextrose (w/v)/polyethylene glycol 400 (4:1 v/v). Compounds 126, 127, 131, and 132 were solubilized in 10% hydroxypropyl-β-cyclodextrin (w/v).

For the next series, the system named is rat. Nature of the series: Acute toxicity assessment, maximum tolerated dose i.v., rat. Type of series: in vivo. Conditions: rats, 30 mg/kg i.v. As to the method:
as §1

The next series deals with DAT (Homo sapiens, UniProt Q01959). Nature of the series: cell-based. Also noted: expressed in transfected cells. As to conditions: hDAT cell line; read-out: DA Uptake, Functional Assays (antagonism, EC50).
The target of series [4] is T2, serotonin transporter. Nature of the series: Functional activity, serotonin uptake inhibition in human HEK-293 cell lines. In kind it is cell-based. Also noted: expressed in transfected cells; host or cells: HEK-293. Conditions: 5-HT Uptake, Functional Assays (antagonism, EC50, nM).
The target of series [5] is dopamine transporter (Homo sapiens, UniProt Q01959). The series can be described thus: DA uptake: displacement of dopamine ligands in vitro (methods of Gu et al.). Conditions: DA Uptake, Uptake Profile (IC50, nM), displacement of dopamine ligands in vitro.
Series [6] has as its target dopamine transporter (Rattus norvegicus, UniProt P23977). Conditions: read-out: binding affinity for the dopamine transporter (IC50); cited from earlier work.
The conditions of series [7]: locomotor activity tests; cited from earlier work.
For series [8] the following is noted: cited from earlier work.
For series [9] the following is noted: baboon, intravenous; cited from earlier work.
The mark [10] stands for this setting: NE Uptake, Uptake Profile (IC50, nM).
The mark [11] stands for this setting: displacement of serotonin ligands in vitro, read-out: 5-HT Uptake, Uptake Profile (IC50).

T2 sequence (P31645 whole entry): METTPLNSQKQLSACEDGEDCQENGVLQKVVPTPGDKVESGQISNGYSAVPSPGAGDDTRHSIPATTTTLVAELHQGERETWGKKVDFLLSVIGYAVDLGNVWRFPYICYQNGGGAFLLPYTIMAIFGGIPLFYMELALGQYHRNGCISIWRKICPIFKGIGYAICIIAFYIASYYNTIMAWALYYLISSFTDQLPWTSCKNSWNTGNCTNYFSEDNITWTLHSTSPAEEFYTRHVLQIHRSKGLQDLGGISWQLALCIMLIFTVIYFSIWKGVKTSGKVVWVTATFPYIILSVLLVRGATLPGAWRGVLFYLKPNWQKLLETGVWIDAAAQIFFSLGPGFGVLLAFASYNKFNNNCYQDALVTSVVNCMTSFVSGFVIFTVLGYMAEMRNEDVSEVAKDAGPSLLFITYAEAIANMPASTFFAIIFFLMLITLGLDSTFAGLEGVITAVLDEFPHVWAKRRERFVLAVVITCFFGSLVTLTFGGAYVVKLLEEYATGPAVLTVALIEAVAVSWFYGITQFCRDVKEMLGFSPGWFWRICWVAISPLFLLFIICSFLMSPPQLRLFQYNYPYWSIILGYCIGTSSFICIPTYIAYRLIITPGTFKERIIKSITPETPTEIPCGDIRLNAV
Sequence of DAT (Q01959 whole entry): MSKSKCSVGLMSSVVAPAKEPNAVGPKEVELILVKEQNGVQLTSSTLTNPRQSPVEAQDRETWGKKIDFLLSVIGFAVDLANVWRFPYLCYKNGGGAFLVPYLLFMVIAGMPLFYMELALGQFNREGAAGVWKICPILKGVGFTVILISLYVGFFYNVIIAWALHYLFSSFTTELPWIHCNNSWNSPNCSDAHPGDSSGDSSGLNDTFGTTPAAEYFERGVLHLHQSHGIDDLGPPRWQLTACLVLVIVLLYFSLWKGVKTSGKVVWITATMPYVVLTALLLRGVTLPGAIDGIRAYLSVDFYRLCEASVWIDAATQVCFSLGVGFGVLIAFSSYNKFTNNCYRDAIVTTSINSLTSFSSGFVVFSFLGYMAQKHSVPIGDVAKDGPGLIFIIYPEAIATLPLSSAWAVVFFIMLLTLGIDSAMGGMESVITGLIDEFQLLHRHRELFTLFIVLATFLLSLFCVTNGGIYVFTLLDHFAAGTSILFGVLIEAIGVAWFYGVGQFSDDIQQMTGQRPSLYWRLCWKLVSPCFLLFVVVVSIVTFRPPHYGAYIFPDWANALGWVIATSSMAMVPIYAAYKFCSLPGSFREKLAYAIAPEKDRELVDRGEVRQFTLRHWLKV
Sequence of dopamine transporter (Homo sapiens, UniProt Q01959) (Q01959 whole entry): as above
T1 sequence (P23975 whole entry): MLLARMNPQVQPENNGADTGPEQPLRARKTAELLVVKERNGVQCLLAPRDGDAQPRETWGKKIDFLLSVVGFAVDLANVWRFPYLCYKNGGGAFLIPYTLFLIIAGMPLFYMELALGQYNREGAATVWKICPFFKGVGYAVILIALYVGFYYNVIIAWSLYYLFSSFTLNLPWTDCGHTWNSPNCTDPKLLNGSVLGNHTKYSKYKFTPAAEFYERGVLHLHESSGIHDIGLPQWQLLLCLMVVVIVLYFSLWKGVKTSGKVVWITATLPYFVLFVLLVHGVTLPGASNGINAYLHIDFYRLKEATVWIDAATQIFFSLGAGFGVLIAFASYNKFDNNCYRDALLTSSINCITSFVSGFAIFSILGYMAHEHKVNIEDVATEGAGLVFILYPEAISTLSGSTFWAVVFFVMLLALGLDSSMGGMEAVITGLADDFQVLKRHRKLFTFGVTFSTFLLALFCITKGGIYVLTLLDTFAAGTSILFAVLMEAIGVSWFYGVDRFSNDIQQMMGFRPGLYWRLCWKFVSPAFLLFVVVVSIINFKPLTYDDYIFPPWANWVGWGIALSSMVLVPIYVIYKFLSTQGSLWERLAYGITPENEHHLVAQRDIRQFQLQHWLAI
Sequence of dopamine transporter (Rattus norvegicus, UniProt P23977) (P23977 whole entry): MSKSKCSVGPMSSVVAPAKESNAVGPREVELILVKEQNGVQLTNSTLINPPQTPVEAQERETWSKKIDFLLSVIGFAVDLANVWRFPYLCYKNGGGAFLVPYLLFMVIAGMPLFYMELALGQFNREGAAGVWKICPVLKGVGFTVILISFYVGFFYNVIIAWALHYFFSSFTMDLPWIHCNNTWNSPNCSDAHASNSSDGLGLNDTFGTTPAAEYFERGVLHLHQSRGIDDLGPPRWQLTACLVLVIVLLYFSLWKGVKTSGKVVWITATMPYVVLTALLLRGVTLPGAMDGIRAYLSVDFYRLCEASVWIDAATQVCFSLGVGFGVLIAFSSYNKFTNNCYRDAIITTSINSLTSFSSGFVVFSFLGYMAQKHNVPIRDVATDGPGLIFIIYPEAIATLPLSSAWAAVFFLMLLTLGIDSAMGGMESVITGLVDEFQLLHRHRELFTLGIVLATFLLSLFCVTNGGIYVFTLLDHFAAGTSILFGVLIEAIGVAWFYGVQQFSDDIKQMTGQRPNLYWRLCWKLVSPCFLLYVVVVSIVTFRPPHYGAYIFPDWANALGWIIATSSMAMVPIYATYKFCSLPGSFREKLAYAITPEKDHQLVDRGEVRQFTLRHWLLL

With `CNCCC(Oc1ccc(C(F)(F)F)cc1)c1ccccc1` (stereo not drawn) [fluoxetine], the “effect on self-administration of cocaine” value with rats and monkeys (rats) was “decreased self-administration of cocaine”.

Regarding `FC(F)(F)c1ccc(OC[C@@H]2CCCN(CC3(c4ccc(Cl)cc4)CCC3)C2)cc1` [compound 114, (R)-1-[1-(4-chloro-phenyl)-cyclobutylmethyl]-3-(4-trifluoromethyl-phenoxymethyl)-piperidine], the IC50 in series [1] (read-out: NE Uptake, Uptake Profile (IC50)) was below 1000 nM; at serotonin transporter [2] (read-out: 5-HT Uptake, Uptake Profile (IC50)), above 1000 nM; at dopamine transporter [5] it was below 100 nM. In addition, the EC50 in series [3] is below 1000 nM; on DAT, below 10 nM; on serotonin transporter [4], above 1000 nM. Also, in the series with Sprague-Dawley rats, the “locomotor activity compared to control animals” value was “significant increase”. For the same compound, the “tolerability and mortality after 72 h” value in the series on mouse and in the series on rat was “well tolerated” each time.

As for `FC(F)(F)c1ccc(OC[C@H]2CCCN(CC3(c4ccc(Cl)cc4)CCC3)C2)cc1` [compound 115, (S)-1-[1-(4-chloro-phenyl)-cyclobutylmethyl]-3-(4-trifluoromethyl-phenoxymethyl)-piperidine], the IC50 in [1] (setting [10]) is below 1000 nM; at serotonin transporter [2] (5-HT Uptake, Uptake Profile (IC50, nM)), above 1000 nM; at dopamine transporter [5], below 100 nM. The EC50 was below 1000 nM in [3], below 10 nM at DAT and above 1000 nM at serotonin transporter [4]. Moreover, the “locomotor activity compared to control animals” value in the series with Sprague-Dawley rats is recorded as “significant increase”. Besides, the “tolerability and mortality after 72 h” value in the series with mouse and in the series on rat was “well tolerated” each time.

With `Cc1ccc(-c2cc([C@@H]3C4CCC(C[C@@H]3c3ccc(Cl)cc3)N4C)on2)cc1` (stereo partly drawn) [RTI-336], the IC50 on dopamine transporter [6] is 4.09 nM. In addition, in series [7], the “time to peak action after administration” value was 70 to 100 min. The “effect on self-administration of cocaine” value in the series with rats and monkeys (rats and monkeys) is “effective blocking of cocaine self-administration”.

For `Clc1ccc(C2(CN3CCC[C@H](COc4ccc5c(c4)OCO5)C3)CCC2)cc1` [compound 113, (S)-3-(Benzo[1,3]dioxol-5-yloxymethyl)-1-[1-(4-chloro-phenyl)-cyclobutylmethyl]-piperidine], the IC50 in series [1] (setting [10]) was below 1000 nM; at serotonin transporter [2] (setting [11]), below 1000 nM; at dopamine transporter [5] it was below 100 nM. For the same compound, the EC50 in [3] is below 1000 nM; on DAT it was below 10 nM; on serotonin transporter [4] it was above 1000 nM. Further, in the series on Sprague-Dawley rats, the “locomotor activity compared to control animals” value is reported as “significant increase”. In addition, the “tolerability and mortality after 72 h” value in the series with mouse and in the series on rat was “well tolerated” throughout.

Turning to `CN1[C@H]2CC[C@@H]1[C@@H](C(=O)Oc1ccccc1)[C@@H](c1ccc(Cl)cc1)C2` [RTI-113], the IC50 at dopamine transporter [6] was 1.98 nM. Besides, in series [7], the duration of action entry is given as “over 4 hours” and the “time to peak action after administration” value was 30 to 60 min. In addition, the “effectiveness of elimination of cocaine consumption” value in the series on rats and monkeys (60% occupancy of the dopamine transporter) was 92%. In the series on rats and monkeys (rats and monkeys), the “effect on self-administration of cocaine” value is recorded as “inhibits self-administration of cocaine”.

As to `Clc1ccc(C2(CN3CCC[C@@H](COc4ccc5c(c4)OCO5)C3)CCC2)cc1` [compound 110, (R)-3-(Benzo[1,3]dioxol-5-yloxymethyl)-1-[1-(4-chloro-phenyl)-cyclobutylmethyl]-piperidine], the IC50 in series [1] (setting [10]) was below 1000 nM; on serotonin transporter [2] (setting [11]), below 1000 nM; on dopamine transporter [5], below 100 nM. Also, the EC50 is below 1000 nM in [3], below 10 nM on DAT and above 1000 nM on serotonin transporter [4]. Besides, in the series with Sprague-Dawley rats, the “locomotor activity compared to control animals” value is reported as “significant increase”. The “tolerability and mortality after 72 h” value in the series on mouse and in the series on rat was “well tolerated” throughout.

Turning to `COC(=O)[C@H]1[C@@H](OC(=O)c2ccccc2)C[C@@H]2CC[C@H]1N2C` [cocaine], in [8] (dosed intravenously), the “time of peak uptake into the brain” value is 4 to 6 min. The “half-life in the brain” value in series [8] (intravenous) is 20 min. Besides, the “time to peak concentration in brain” value in [9] was 4 to 6 min.

Broadly, the IC50 is the midpoint of a concentration-inhibition curve. One may read the EC50 as the concentration that produces a half-maximal response.

The record behind these values is patent publication US7294637B2 (Sepracor, Inc., priority 2000, dated 2007).
